Source: US6649762B1, “Crystal modification C of 8-cyano-1-cyclopropyl-7-(1S,6S-2,8-diazabicyclo-[4.3.0]nonan-8-yl)-6-fluoro-1,4-dihyro-4-oxo-3-quinoline carboxylic” (Bayer Aktiengesellschaft, priority 1999, dated 2003)

Columns and labels:
[1] = storage stability of the crystal modification; format: physicochemical; conditions: prolonged storage
pathogenic bacteria = test: activity against pathogenic bacteria; conditions: area of human or veterinary medicine
[2] = hygroscopicity of the solid; format: physicochemical; conditions: powder obtained by the known preparation process

Structure (SMILES) | stability of the crystal modification (change into another crystal modification or the amorphous form) [1] | activity against pathogenic bacteria (pathogenic bacteria) | hygroscopicity [2]
N#Cc1c(N2C[C@@H]3CCCN[C@@H]3C2)c(F)cc2c(=O)c(C(=O)O)cn(C3CC3)c12 [CCDC of the crystal modification C, 8-cyano-1-cyclopropyl-7-(1S,6S-2,8-diazabicyclo[4.3.0]nonan-8-yl)-6-fluoro-1,4-dihydro-4-oxo-3-quinolinecarboxylic acid] | does not change into another crystal modification or the amorphous form | highly active | –
N#Cc1c(N2C[C@@H]3CCCN[C@@H]3C2)c(F)cc2c(=O)c(C(=O)O)cn(C3CC3)c12 [partially amorphous powder, 8-cyano-1-cyclopropyl-7-(1S,6S-2,8-diazabicyclo[4.3.0]nonan-8-yl)-6-fluoro-1,4-dihydro-4-oxo-3-quinolinecarboxylic acid] | – | – | hygroscopic
